Here are results for 4 compounds from patent US7737177B2, “Processes for preparing crystalline and amorphous mupirocin calcium” (priority 2001, dated 2010).

The nature of series [1]: thermal stability reported by Baker et al. (purity after storage). Format: physicochemical. An excerpt: The Baker et al. patents disclose preparing amorphous form of mupirocin calcium by crystallization from an aqueous solution consisting of 50% methanol followed by trituration with dry ether.
Baker et al. expresses its assay in relation to psuedomonic acid. The assay of the present invention is expressed differently, as illustrated by Table-1.
In connection with amorphous mupirocin calcium, the assay of the present invention can be converted into the assay expressed as in Baker et al. by multiplying with a factor of 0.9637. This 89.9% assay of Baker et al. corresponds to a 93.29% assay as calculated by the method of the present invention.
In connection with mupirocin calcium dihydrate, the 92.1% assay of Baker et al. corresponds to a 98.88% assay as expressed by the present invention.

For series [2] the following is noted: cited from earlier work; for Purity after storage: expressed as a percentage of pure free pseudomonic acid.
The conditions of series [3]: according to the maker of Bactroban, cited from earlier work.
The nature of series [4]: thermal stability on storage (HPLC assay, Karl Fischer water, HPLC impurities). The format is physicochemical. Details: Total Impurity: unit not given here. As for the experimental part: As used herein, the term “assay” refers to a determination of purity/presence of a quantity of a substance as described by the European Pharmacopoeia (“EP”). EUROPEAN PHARMACOPOEIA, Fourth Edition, pp 1602-1604, Council of Europe, Strasbourg, 2001. The assay is done with high pressure liquid chromatography (“HPLC”).
As used herein, the term “total impurity” refers to the sum of all areas under the peaks of impurities as described by the European Pharmacopoeia. It is determined by another HPLC method and is different than the assay.
The present invention provides for amorphous mupirocin calcium with high thermal stability. Thermal stability is defined as the ability to resist chemical degradation during storage, especially in light of the conditions during storage. The higher purity and […] of amorphous mupirocin calcium makes it less susceptible to chemical degradation during storage.
Glass ampoule in Aluminum laminate bag with silica gel was used as the packing system.
Relative humidity was exactly 60%.
The water content was measured by the Karl Fischer method.
High pressure liquid chromatography (HPLC) was performed on a Zorbax® C-8 (5 um; 250×4.6 mm), reverse phase column with ammonium acetate buffer solution in water: tetrahydrofuran mixture as eluent. Detected by U.V. spectroscopy at λ=240 nm.
The assay also used the same HPLC instruments.

For series [5] the following is noted: Baker et al., Column 1, Lines 31-33; cited from earlier work.
Where [6] appears, read: 1 Kg batch, 0 months at 2–8° C.
[7] abbreviates: 1 Kg batch, 0.5 months at 2–8° C.
Setting [8] is: 1 Kg batch, 0.5 months at 25° C.
Setting [9] is: 1 Kg batch, 1.0 months at 2–8° C.
Where [10] appears, read: 1 Kg batch, 2.0 months at 2–8° C.
Where [11] appears, read: 187.2 grams batch, 2° C.-8° C. 60% RH, 0 month.
Where [12] appears, read: 187.2 grams batch, 2° C.-8° C. 60% RH, 1 month.
Where [13] appears, read: 187.2 grams batch, 2° C.-8° C. 60% RH, 2 months.
Where [14] appears, read: 187.2 grams batch, 2° C.-8° C. 60% RH, 3 months.
[15] abbreviates: 187.2 grams batch, 25° C./60% RH, 0 month.
The mark [16] stands for this setting: 187.2 grams batch, 25° C./60% RH, 1 month.
The mark [17] stands for this setting: 187.2 grams batch, 25° C./60% RH, 2 months.
Where [18] appears, read: 187.2 grams batch, 25° C./60% RH, 3 months.

Read-outs that look alike come from different tables or passages of the source. Bounds are passed on as bounds.

As for `C/C(=C\C(=O)OCCCCCCCCC(=O)O)C[C@@H]1OC[C@H](C[C@@H]2O[C@H]2[C@@H](C)[C@H](C)O)[C@@H](O)[C@H]1O` [Crystalline mupirocin calcium dihydrate, mupirocin calcium dihydrate], the Purity after storage in series [1] (2 weeks, 37° C., expressed as a percentage of mupirocin calcium dihydrate) is reported as 99.08%; in series [1] (2 weeks, 50° C., expressed as a percentage of mupirocin calcium dihydrate), 97.60%; in series [1] (2 weeks, 80° C., expressed as a percentage of mupirocin calcium dihydrate) it was 92.95%; in series [1] (8 days, 80° C., expressed as a percentage of mupirocin calcium dihydrate) it was 95.91%; in series [1] (10 days, 50° C., expressed as a percentage of mupirocin calcium dihydrate) it was 97.79%; in series [2] (2 weeks, 37° C., calcium dihydrate), 92.28%. Moreover, the Purity after storage in series [2] (2 weeks, 50° C., calcium dihydrate) is 90.90%; in series [2] (2 weeks, 80° C., calcium dihydrate), 86.57%; in series [2] (8 days, 80° C., calcium dihydrate), 89.33%; in series [2] (10 days, 50° C., calcium dihydrate), 91.08%.

With `C/C(=C\C(=O)OCCCCCCCCC(=O)[O-])C[C@@H]1OC[C@H](C[C@@H]2O[C@H]2[C@@H](C)[C@H](C)O)[C@@H](O)[C@H]1O.C/C(=C\C(=O)OCCCCCCCCC(=O)[O-])C[C@@H]1OC[C@H](C[C@@H]2O[C@H]2[C@@H](C)[C@H](C)O)[C@@H](O)[C@H]1O.O.O.[Ca+2]` [mupirocin calcium], the side effects result in series [3] (administered intravenously at 250 mg) and in series [3] (administered orally at 500 mg) was “without any major side effects” in each case.

In the case of `C/C(=C\C(=O)OCCCCCCCCC(=O)[O-])C[C@@H]1OC[C@H](C[C@@H]2O[C@H]2[C@@H](C)[C@H](C)O)[C@@H](O)[C@H]1O.C/C(=C\C(=O)OCCCCCCCCC(=O)[O-])C[C@@H]1OC[C@H](C[C@@H]2O[C@H]2[C@@H](C)[C@H](C)O)[C@@H](O)[C@H]1O.O.O.[Ca+2]` [amorphous mupirocin calcium, mupirocin calcium], the Assay in series [4] (setting [6]) worked out at 98.5; in series [4] (1 Kg batch, 0 months at 25° C.), 98.5; in series [4] (setting [7]), 95.2; in series [4] (setting [8]), 97.4; in series [4] (1 Kg batch, 1 month at 25° C.), 98.3; in series [4] (setting [9]), 95.5. The Assay in series [4] (setting [10]) is 96.7; in series [4] (1 Kg batch, 2 months at 25° C.), 96.5; in series [4] (after 2 months of storage at about 25° C. and at about 2-8° C.) it was “about 96%”. The Water is 1.2 in series [4] (setting [6]); 1.5 in series [4] (1 Kg batch, 0 months at 25° C.); 1.3 in series [4] (setting [7]); 1.2 in series [4] (setting [8]); 1.9 in series [4] (1 Kg batch, 1 month at 25° C.); 1.9 in series [4] (setting [9]). Further, the Water in series [4] (setting [10]) was 1.6; in series [4] (1 Kg batch, 2 months at 25° C.), 1.5; in series [4] (setting [11]), 0.6%; in series [4] (setting [12]), 0.8%; in series [4] (setting [13]), 0.7%; in series [4] (setting [14]), 1.1%. In addition, the Water came to 0.6% in series [4] (setting [15]), 0.8% in series [4] (setting [16]), 0.8% in series [4] (setting [17]) and 1.0% in series [4] (setting [18]). Moreover, the “Total Impurity” value in series [4] (setting [7]) is given as 2.71; in series [4] (setting [8]), 2.83; in series [4] (1 Kg batch, 1 month at 25° C.) it was 3.18; in series [4] (setting [9]) it was 2.88; in series [4] (setting [10]), 2.86; in series [4] (1 Kg batch, 2 months at 25° C.), 3.21. Moreover, the “Assay (HPLC)” value in series [4] (setting [11]) is reported as 96.0%; in series [4] (setting [12]) it was 95.6%; in series [4] (setting [13]) it was 95.3%; in series [4] (setting [14]) it was 96.1%; in series [4] (setting [15]) it was 96.0%; in series [4] (setting [16]) it was 97.5%. The “Assay (HPLC)” value came to 94.1% in series [4] (setting [17]) and 95.9% in series [4] (setting [18]). The Description result in series [4] (setting [11]) was “White”; in series [4] (setting [12]), “White”; in series [4] (setting [13]), “White”; in series [4] (setting [14]), “White”; in series [4] (setting [15]), “White powder”; in series [4] (setting [16]) it was “White”. For the same compound, the Description result in series [4] (setting [17]) and in series [4] (setting [18]) was “White” in each case. Also, the “Impurities (HPLC) Imp. C” value in series [4] (setting [11]) was found to be 1.31%; in series [4] (setting [13]) it was 1.32%; in series [4] (setting [14]), 1.35%; in series [4] (setting [15]), 1.31%; in series [4] (setting [17]) it was 1.34%; in series [4] (setting [18]), 1.37%. Further, the “Impurities (HPLC) MUP II” value in series [4] (setting [11]) is 0.31%; in series [4] (setting [13]) it was 0.41%; in series [4] (setting [14]), 0.42%; in series [4] (setting [15]) it was 0.31%; in series [4] (setting [17]), 0.77%; in series [4] (setting [18]), 0.89%. For the same compound, the “Impurities (HPLC) Total Impurities” value turned out to be 2.22% in series [4] (setting [11]); 2.43% in series [4] (setting [13]); 2.62% in series [4] (setting [14]); 2.22% in series [4] (setting [15]); 3.02% in series [4] (setting [17]); 3.25% in series [4] (setting [18]). For the same compound, the total impurity content entry in series [4] (after 2 months) is recorded as “about 3%”. Moreover, in series [4] (after at least two months of storage at 25° C.), the “total level of impurity (not assay)” value is listed as “less than 3.5%”. The “level of impurity MUP II (impurity E in the EP)” value in series [4] (storage at 25° C. and RH 60% for at least two months) was ≤ 1%.

For `C/C(=C\C(=O)OCCCCCCCCC(=O)[O-])C[C@@H]1OC[C@H](C[C@@H]2O[C@H]2[C@@H](C)[C@H](C)O)[C@@H](O)[C@H]1O.C/C(=C\C(=O)OCCCCCCCCC(=O)[O-])C[C@@H]1OC[C@H](C[C@@H]2O[C@H]2[C@@H](C)[C@H](C)O)[C@@H](O)[C@H]1O.O.O.[Ca+2]` [Anhydrous amorphous mupirocin calcium, mupirocin calcium], the Purity after storage in series [1] (2 weeks, 37° C., expressed as a percentage of mupirocin calcium anhydrous) was 91.14%; in series [1] (2 weeks, 50° C., expressed as a percentage of mupirocin calcium anhydrous), 74.71%; in series [1] (2 weeks, 80° C., expressed as a percentage of mupirocin calcium anhydrous), 13.05%; in series [1] (8 days, 80° C., expressed as a percentage of mupirocin calcium anhydrous) it was 27.05%; in series [1] (10 days, 50° C., expressed as a percentage of mupirocin calcium anhydrous), 77.70%; in series [2] (2 weeks, 37° C.), 87.83%. The Purity after storage in series [2] (2 weeks, 50° C.) was 72.0%; in series [2] (2 weeks, 80° C.) it was 12.58%; in series [2] (8 days, 80° C.), 26.07%; in series [2] (10 days, 50° C.), 74.88%. Also, in series [4] (after storage for one month), the “level of impurity MUP II (impurity E in the EP)” value was “more than 1%”. Moreover, in series [4] (after two months of storage, FIGS. 9 and 10), the “total level of impurities (not assay)” value is reported as “more than 3.5%”. For the same compound, in series [2] (Baker et al., Column 1, Lines 31-33), the thermal stability result is given as “poor thermal stability”. The “deterioration at high temperatures” value in series [2] (chart in Columns 8 and 9 of the '093 patent) is reported as “rapid deterioration at high temperatures”. The water solubility entry in series [5] was “sparingly water soluble”.
